Results on 1 compound are retold here after patent US11027029B2, “Peptide thiourea derivative, radioisotope labeled compound containing same, and pharmaceutical composition containing same as active ingredient for treating or diagnosing prostate cancer” (CELLBION CO., LTD, priority 2015, dated 2021).

The structures appear in SMILES notation.

In the assay the target is T1, PSMA positive 22Rv1 cells (Homo sapiens, UniProt Q04609).
T1 construct: endogenous in cells; host or cells: 22Rv1 prostate cancer cells
Briefly: In vitro competitive inhibition cell binding test against I-125-MIP-1072. The following applies: 1.85 kBq I-125-MIP-1072, 1 hour, nonlinear regression analysis, read-out: IC50 (inhibition of binding between 22Rv1 cells and I-125-MIP-1072). As to the method:
To perform in vitro competitive inhibition cell binding test of Ga-NOTA-SCN-GUL, the following experiment was conducted.
The PSMA positive prostate cancer cell line 22Rv1 was loaded in a 24-well plate at the density of 2×10^5 cells/well, followed by culture in a 37[…] 5% CO2 incubator for 24 hours. Ga-NOTA-SCN-GUL prepared in Example 2 was diluted 2-fold serially with the cell culture medium containing 0.5% bovine serum albumin. The diluted sample was added to the cultured cells (0.5 mL/well), to which 1.85 kBq (S)-2-(3-((S)-1-carboxy-5-((4-iodobenzyl)amino)pentyl)ureido)pentanedioic acid (I-125-MIP-1072) was added (0.5 mL/well). After well mixed, the mixture was cultured in a 37[…] 5% CO2 incubator for 1 hour. The culture medium was discarded, and the cells were washed with fresh medium twice, to which 0.5% sodium dodecyl sulfate (SDS) dissolved in PBS was added (1 mL/well). The mixture was gently shaken for complete dissolving, and then loaded in a 5 mL disposable plastic test tube. Then, the radioactivity was measured with a gamma counter.

T1 sequence (Q04609 whole entry): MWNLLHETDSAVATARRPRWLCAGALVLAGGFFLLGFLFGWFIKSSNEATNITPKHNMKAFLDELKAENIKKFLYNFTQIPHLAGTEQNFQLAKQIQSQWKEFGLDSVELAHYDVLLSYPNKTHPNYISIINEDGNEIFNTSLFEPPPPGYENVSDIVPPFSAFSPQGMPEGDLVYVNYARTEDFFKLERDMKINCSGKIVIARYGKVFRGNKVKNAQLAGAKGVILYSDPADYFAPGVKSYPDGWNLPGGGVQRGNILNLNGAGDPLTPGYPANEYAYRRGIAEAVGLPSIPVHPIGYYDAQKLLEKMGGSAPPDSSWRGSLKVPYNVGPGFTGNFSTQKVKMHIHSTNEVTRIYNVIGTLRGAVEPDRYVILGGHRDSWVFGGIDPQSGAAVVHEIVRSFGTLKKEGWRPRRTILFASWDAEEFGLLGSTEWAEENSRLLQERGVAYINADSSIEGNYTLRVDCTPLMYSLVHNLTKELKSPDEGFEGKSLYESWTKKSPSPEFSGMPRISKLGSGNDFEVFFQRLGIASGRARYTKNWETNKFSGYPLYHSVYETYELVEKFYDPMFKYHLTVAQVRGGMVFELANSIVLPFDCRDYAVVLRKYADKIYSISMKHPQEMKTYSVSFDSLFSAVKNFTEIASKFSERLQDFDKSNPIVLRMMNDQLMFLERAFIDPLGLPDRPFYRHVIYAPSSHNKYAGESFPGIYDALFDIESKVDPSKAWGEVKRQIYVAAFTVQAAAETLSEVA

`O=C(O)CCC(NC(=O)NC(CCCCNC(=S)Nc1ccc(CC2CN3CCN4CCN2CC(=O)[O][Ga]([O]C(=O)C4)[O]C(=O)C3)cc1)C(=O)O)C(=O)O` (stereo not shown) [Example 2]: the concentration for half-maximal inhibition (IC50) – broadly, the point on the concentration scale where inhibition reaches its midpoint – was determined as 18.3 nM.
